{"source": "patent US10414741B2", "about": "“Amorphous vortioxetine and salts thereof” (CADILA HEALTHCARE LIMITED, priority 2013, dated 2019)", "experiment": "stability of amorphous form under normal stability conditions", "type": "physicochemical", "text": "Therefore, there is no physical change observed from amorphous form to crystalline form during the stability.\nIn further aspect, the stable amorphous vortioxetine free base or vortioxetine hydrobromide can be stored under nitrogen atmosphere and packed in a double polythene bag tied with a thread, keeping primary packing containing amorphous vortioxetine or vortioxetine hydrobromide inside a black color polyethylene bag containing oxygen busters and sealing it, placing above the double polyethylene bag inside a triple laminated bag optionally containing oxygen busters and sealing it, and placing the sealed triple laminated bag inside a closed high density polyethylene (HDPE) container and storing in controlled environment chamber at 25° C. and/or 40° C."}
{"smiles": "Cc1ccc(Sc2ccccc2N2CCNCC2)c(C)c1", "note": "[amorphous vortioxetine free base, 1-{2-[(2,4-dimethylphenyl)sulfanyl]phenyl}piperazine]", "values": [{"measurement": "stability of amorphous form (physical change from amorphous form to crystalline form)", "value": "stable under normal stability conditions"}]}
